Experimental data published in patent US20050227220A1, “Compositions and Methods for Evaluating and Designing Nuclear Receptor Ligands that Modulate Co-Regulator Affinity” (priority 2002, published 2005).
“Also recorded” adds a separate entry of the source.

Assays:
PPARδ LBD = target: T1, PPARδ LBD (Homo sapiens, UniProt Q03181); experiment: FRET assay: ligand effect on CBP fragment / NCoR ID-C binding to PPAR LBD; type: biochemical
T1 construct: made in house; host or cells: bacterial BL21-DE3, vector pRSETA
T1 sequence (Q03181 139-441): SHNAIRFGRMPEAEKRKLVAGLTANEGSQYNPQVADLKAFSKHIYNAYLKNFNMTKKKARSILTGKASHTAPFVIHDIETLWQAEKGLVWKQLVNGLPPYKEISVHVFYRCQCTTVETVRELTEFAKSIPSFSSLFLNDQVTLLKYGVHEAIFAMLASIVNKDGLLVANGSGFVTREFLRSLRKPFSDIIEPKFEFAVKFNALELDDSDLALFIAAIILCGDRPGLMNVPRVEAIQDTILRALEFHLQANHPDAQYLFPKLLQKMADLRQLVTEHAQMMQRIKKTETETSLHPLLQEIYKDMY
Description: (§1) The experimentally determined α value is the ratio of cofactor affinities in the presence and absence of a saturating concentration of ligand. This analysis permits a direct comparison of the effects of compounds, independent of cofactor concentration and differences in coregulator affinity for the individual receptors. […] 98(9): p.
(§2) The effects of the coregulator environment on the apparent affinities and selectivities of various ligands were than examined. Experimentally determined pKs and the α values derived from the FRET assay were used to calculate the apparent affinity of the ligand for the receptor/cofactor complex (i.e. K/α).
(§3) FIG. 5 illustrates the effect of ligands on coactivator and corepressor binding to PPAR subtypes determined by FRET.

PPARγ LBD = target: T2, PPARγ LBD (Homo sapiens, UniProt P37231); experiment: as above; type: biochemical; conditions: 10 nM PPAR LBD
T2 construct: made in house; host or cells: bacterial BL21-DE3, vector pRSETA
T2 sequence (P37231 234-505): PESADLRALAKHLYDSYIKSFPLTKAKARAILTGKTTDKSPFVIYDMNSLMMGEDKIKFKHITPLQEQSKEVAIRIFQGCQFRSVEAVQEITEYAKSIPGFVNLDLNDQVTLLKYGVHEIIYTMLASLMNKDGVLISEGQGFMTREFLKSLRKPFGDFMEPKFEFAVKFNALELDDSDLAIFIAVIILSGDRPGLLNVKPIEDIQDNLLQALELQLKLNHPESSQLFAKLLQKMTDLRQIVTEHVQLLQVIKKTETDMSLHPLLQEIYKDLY
Description: as §1, §2, §3

PPARα LBD = target: T3, PPARα LBD (Homo sapiens, UniProt Q07869); experiment: as above; type: biochemical
T3 construct: made in house; host or cells: bacterial BL21-DE3, vector pRSETA
T3 sequence (Q07869 192-468): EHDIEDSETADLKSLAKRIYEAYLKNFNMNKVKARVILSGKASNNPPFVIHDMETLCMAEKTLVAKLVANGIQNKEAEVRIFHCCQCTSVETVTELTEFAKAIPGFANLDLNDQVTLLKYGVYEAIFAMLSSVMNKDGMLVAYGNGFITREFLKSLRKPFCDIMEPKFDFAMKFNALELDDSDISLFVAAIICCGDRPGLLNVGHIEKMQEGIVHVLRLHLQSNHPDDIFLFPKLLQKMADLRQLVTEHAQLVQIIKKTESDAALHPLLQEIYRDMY
Description: as §1, §2, §3

PPARδ LBD / RXRα LBD = target: T4, PPARδ LBD / RXRα LBD (Homo sapiens, UniProt Q03181); experiment: FRET assay: ligand effect on RXRα LBD binding to PPAR LBD; conditions: 10 nM PPAR LBD, 4 concentrations of RXR
T4 sequence (Q03181 139-441): T1 sequence (Q03181 139-441)
T4 sequence (P19793 225-462 partner limits assumed): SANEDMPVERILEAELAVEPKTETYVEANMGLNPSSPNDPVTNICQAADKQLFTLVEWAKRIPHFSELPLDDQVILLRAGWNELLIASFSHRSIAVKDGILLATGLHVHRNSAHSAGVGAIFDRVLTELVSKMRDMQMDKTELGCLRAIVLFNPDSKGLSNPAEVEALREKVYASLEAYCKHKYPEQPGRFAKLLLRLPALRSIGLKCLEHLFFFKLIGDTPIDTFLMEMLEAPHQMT

[1] = target: PPARα ligand binding domain (Homo sapiens, UniProt Q07869); experiment: Surface plasmon resonance: effect of compounds on co-repressor peptide binding to PPAR LBD; conditions: SPR equilibrium response, immobilized biotinylated peptides
Description: (§7) A surface plasmon resonance assay was used to further characterize the effects of PPAR ligands binding of peptides derived from the co-repressors NCOR and SMRT to the PPAR subtypes. Each peptide was biotinylated and immobilized on separate flow cells of a BlAcore sensor chip. Using a BIAcore instrument, fixed concentrations of each PPAR subtype ligand binding domain were incubated with varied concentrations of test compounds and injected over the peptide-derivatized sensor chip to determine the equilibrium binding response of the receptors for the immobilized peptides.
(§8) The binding of co-activator and co-repressor peptides with PPAR ligand binding domains and the effects of compounds on these interactions were determined by surface plasmon resonance using the Biacore 3000. Approximately 300 resonance units (RU) of biotinylated peptides were immobilized to individual flow cells of a streptavidin chip. All experiments were conducted at 25° C. at a flow rate of 10 μl/minute with a buffer containing 10 mM HEPES, pH 7.4, containing 0.15 M NaCl, 3 mM EDTA and 0.005% polysorbate-20. […] Binding was determined by measuring the equilibrium binding response 10 seconds before the end of the association phase minus the response from a flow cell with no immobilized peptide.
(§9) Each point is the average of three injections.

[2] = target: PPARγ ligand binding domain (Homo sapiens, UniProt P37231); experiment: as above; conditions: SPR equilibrium response, immobilized biotinylated peptides
PPARγ ligand binding domain, sequence (P37231 234-505): as the sequence (P37231 234-505) above
Description: as §7, §8, §9

full length human PPARα = target: T5, full length human PPARα (Homo sapiens, UniProt Q07869); experiment: Mammalian two-hybrid assay (CV-1 cells); type: cell-based; conditions: VP16-PPARα, GAL4-NCoR (2239-2300), result in words
T5 construct: expressed in transfected cells; host or cells: CV-1 cells, vector pVP16 (Clonetech)
T5 sequence (Q07869 1-468): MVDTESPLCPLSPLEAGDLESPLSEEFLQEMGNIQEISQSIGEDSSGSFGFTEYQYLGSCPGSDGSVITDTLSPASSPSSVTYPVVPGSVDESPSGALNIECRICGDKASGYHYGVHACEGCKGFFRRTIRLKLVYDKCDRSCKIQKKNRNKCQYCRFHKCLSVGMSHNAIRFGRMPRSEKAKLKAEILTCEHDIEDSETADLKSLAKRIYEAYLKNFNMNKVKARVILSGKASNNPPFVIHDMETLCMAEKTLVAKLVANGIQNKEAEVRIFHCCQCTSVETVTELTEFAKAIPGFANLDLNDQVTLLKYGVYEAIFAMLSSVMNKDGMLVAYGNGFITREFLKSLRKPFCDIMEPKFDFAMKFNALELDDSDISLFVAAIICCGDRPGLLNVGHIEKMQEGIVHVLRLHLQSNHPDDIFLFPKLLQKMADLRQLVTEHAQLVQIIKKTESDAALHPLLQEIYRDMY
Description: (§4) Mammalian two-hybrid assays were used to examine the ability of the tyrosine-based class of PPAR ligands to promote association or dissociation of the co-activator CBP and the corepressor NCoR in the context of a cellular environment. The assays for the three PPAR subtypes used full length human PPARα, PPARγ2 or PPARδ fused to the activation domain of VP16 and previously identified interaction domains of CBP and NCoR fused to the DNA binding domain of GAL4.
(§5) Expression plasmids for the VP16-human PPAR constructs were prepared by inserting amplified cDNAs encoding full length PPARα, PPARγ2 and PPARδ fused to amino acids 410-490 of the VP16 viral activation domain, into the expression vector pVP16 (Clonetech). […] The reporter plasmid was (UAS)5-tk-SPAP, and the internal control plasmid for all transfections was β-galactosidase expression vector (pCH110, Amersham).
(§6) CV-1 cells were maintained in culture in DME high glucose medium supplemented with 10% FBS and 2 mM glutamine in a humidified incubator (5% CO2 in air) at 37° C. Cells were harvested 72 hours prior to experimental use and placed in phenol red free D-MEM/F-12 medium with 15 mM HEPES supplemented with 10% charcoal/dextran-treated FBS (HyClone, Logan, Utah). The cells were harvested and seeded at 2.0×10^4 cell per well in a 96-well plate the day prior to transfection. Cells were transfected for 16 hr using Lipofectamine (Life Technologies, Inc., Rockville, Md.) essentially according to the manufacturer's instructions. The total amount of DNA transfected into each well was 80 ng. Transfection mixtures contained 8 ng VP16-PPAR plasmid, 8 ng SPAP reporter, 25 ng of pCH110(β-galactosidase) control plasmid, 35 ng of pBluescript II KS+ (Clonetech) and 4 ng of either coactivator or corepressor plasmid. Transfection quantities for full length PPAR and cofactor plasmids were optimized to generate a signal that was half of the maximal activation. These conditions would allow for dissociation or association to be experimentally determined for each ligand evaluated. Stock solutions of drugs were prepated in DMSO and dilutions were made in phenol red-free D-MEM/F-12 with 15 mM HEPES supplemented with 10% charcoal stripped, delipidated, heat inactivated (62° C. for 35 min) bovine calf serum (Sigma, St. Louis, Mo.) such that the final concentration of DMSO was 0.1%. Transfection mixtures were aspirated and 100 μl, of medium containing drug was added to each well.

full length human PPARδ = target: T6, full length human PPARδ (Homo sapiens, UniProt Q03181); experiment: Mammalian two-hybrid assay (CV-1 cells); type: cell-based; conditions: VP16-PPARδ, GAL4-NCoR (2239-2300), result in words
T6 construct: expressed in transfected cells; host or cells: CV-1 cells, vector pVP16 (Clonetech)
T6 sequence (Q03181 whole entry, the tested form may be a part): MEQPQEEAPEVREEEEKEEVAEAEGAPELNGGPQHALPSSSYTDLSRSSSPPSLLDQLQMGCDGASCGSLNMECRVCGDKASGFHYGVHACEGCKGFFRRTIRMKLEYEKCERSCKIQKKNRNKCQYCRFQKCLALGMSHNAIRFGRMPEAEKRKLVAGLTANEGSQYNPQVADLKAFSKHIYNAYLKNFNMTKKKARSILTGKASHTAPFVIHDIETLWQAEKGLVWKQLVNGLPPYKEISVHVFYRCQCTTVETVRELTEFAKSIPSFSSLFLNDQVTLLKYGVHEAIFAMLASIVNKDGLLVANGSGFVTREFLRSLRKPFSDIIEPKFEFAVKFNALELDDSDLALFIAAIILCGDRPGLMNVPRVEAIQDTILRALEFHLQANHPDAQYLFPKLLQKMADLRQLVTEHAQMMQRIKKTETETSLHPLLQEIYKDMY
Description: as §4, §5, §6

[3] = α = ratio of cofactor affinities in presence and absence of saturating ligand

## COC(=O)c1ccccc1N[C@@H](Cc1ccc(OCCc2nc(-c3ccccc3)oc2C)cc1)C(=O)O [GW7845]
PPARδ LBD; 10 nM PPAR LBD, CBP (57-454)
  effect on apparent affinity of PPARδ for the co-activator fragment from CBP: increased the apparent affinity
PPARδ LBD; [3]
  log α (NCoR association with PPARδ): 0.14
PPARγ LBD; CBP (57-454)
  effect on apparent affinity of PPARγ for the co-activator fragment from CBP: increased the apparent affinity
PPARγ LBD; NCoR ID-C
  effect on affinity of PPARγ for the co-repressor peptide: decrease the affinity
PPARα LBD; 10 nM PPAR LBD, CBP (57-454)
  effect on apparent affinity of PPARα for the co-activator fragment from CBP: increased the apparent affinity
PPARα LBD; 10 nM PPAR LBD, NCoR ID-C
  effect on affinity of PPARα for the co-repressor peptide: enhanced the binding; also recorded: slightly increase the affinity
PPARα LBD; [3]
  alpha value for the association of PPARα and NCoR: 0.16
PPARδ LBD / RXRα LBD
  promotion of association of PPARδ with RXR: most effective
[1]
  effect on binding of PPARα LBD to the NCOR and SMRT co-repressor peptides: increase the binding
[2]
  effect on binding of PPARγ LBD to the NCOR- and SMRT-derived co-repressor peptides: decreased the binding
Full length human PPARα
  effect on PPARα interaction with NCoR: neither GW1929 nor GW7845 were able to promote association with NCoR
Full length human PPARδ
  effect on PPARδ interaction with NCoR: no significant association
